Experimental data: PMC9645390, “Amphiphilic stilbene derivatives attenuate the neurotoxicity of soluble Aβ42 oligomers by controlling their interactions with cell membranes” (Chemical Science, 2022)
“Also recorded” adds a separate entry of the source.

Test system: mouse neuroblastoma N2a cells
Test: Alamar Blue cytotoxicity assay in N2a cells
Type: cell-based
Settings: 2 to 20 μM

SMILES	cytotoxicity (in words)
COc1cc(OC)cc(-c2ccc(/C=C/c3cc(CN4CCN(C)CCN(C)CC4)c(O)c(CN4CCN(C)CCN(C)CC4)c3)cc2)c1 [ZY-17-DT]	higher cytotoxicity than others
COc1cc(OC)cc(-c2ccc(/C=C/c3cc(CN4CCN(C)CCN(C)CC4)c(O)c(OC)c3)cc2)c1 [ZY-17-OMe]	higher cytotoxicity than others; also recorded: the highest toxicity
